The results in this text go back to patent publication US10150728B2, “Alkylene derivatives” (Shionogi & Co., Ltd., priority 2013, dated 2018).

pIC50: −log10 of the molar value.

In this test the target is recombinant human ACC2 (Homo sapiens (Human), UniProt O00763). The experiment in a line: Measurement of inhibitory activity on human ACC2 (MALDI-TOF MS, acetyl CoA to malonyl CoA conversion). The class given is biochemical. The following applies: Tables 155-159. In a few lines: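 His-tagged human ACC2 (residues 27–2458) from baculovirus-infected Sf-9 cells was preincubated 1 h in pH 7.4 HEPES-KOH buffer with MgCl2, 6-10 mM potassium citrate, glutathione and BSA. Substrate solution held 1 mM ATP, 0.8 mM acetyl CoA and 25-50 mM bicarbonate. After 1–3 h at room temperature, malonyl CoA/(malonyl+acetyl CoA) was read by negative-mode MALDI-TOF MS; citrate, bicarbonate and time varied by enzyme lot.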
Chain of recombinant human ACC2 (O00763 27-2458): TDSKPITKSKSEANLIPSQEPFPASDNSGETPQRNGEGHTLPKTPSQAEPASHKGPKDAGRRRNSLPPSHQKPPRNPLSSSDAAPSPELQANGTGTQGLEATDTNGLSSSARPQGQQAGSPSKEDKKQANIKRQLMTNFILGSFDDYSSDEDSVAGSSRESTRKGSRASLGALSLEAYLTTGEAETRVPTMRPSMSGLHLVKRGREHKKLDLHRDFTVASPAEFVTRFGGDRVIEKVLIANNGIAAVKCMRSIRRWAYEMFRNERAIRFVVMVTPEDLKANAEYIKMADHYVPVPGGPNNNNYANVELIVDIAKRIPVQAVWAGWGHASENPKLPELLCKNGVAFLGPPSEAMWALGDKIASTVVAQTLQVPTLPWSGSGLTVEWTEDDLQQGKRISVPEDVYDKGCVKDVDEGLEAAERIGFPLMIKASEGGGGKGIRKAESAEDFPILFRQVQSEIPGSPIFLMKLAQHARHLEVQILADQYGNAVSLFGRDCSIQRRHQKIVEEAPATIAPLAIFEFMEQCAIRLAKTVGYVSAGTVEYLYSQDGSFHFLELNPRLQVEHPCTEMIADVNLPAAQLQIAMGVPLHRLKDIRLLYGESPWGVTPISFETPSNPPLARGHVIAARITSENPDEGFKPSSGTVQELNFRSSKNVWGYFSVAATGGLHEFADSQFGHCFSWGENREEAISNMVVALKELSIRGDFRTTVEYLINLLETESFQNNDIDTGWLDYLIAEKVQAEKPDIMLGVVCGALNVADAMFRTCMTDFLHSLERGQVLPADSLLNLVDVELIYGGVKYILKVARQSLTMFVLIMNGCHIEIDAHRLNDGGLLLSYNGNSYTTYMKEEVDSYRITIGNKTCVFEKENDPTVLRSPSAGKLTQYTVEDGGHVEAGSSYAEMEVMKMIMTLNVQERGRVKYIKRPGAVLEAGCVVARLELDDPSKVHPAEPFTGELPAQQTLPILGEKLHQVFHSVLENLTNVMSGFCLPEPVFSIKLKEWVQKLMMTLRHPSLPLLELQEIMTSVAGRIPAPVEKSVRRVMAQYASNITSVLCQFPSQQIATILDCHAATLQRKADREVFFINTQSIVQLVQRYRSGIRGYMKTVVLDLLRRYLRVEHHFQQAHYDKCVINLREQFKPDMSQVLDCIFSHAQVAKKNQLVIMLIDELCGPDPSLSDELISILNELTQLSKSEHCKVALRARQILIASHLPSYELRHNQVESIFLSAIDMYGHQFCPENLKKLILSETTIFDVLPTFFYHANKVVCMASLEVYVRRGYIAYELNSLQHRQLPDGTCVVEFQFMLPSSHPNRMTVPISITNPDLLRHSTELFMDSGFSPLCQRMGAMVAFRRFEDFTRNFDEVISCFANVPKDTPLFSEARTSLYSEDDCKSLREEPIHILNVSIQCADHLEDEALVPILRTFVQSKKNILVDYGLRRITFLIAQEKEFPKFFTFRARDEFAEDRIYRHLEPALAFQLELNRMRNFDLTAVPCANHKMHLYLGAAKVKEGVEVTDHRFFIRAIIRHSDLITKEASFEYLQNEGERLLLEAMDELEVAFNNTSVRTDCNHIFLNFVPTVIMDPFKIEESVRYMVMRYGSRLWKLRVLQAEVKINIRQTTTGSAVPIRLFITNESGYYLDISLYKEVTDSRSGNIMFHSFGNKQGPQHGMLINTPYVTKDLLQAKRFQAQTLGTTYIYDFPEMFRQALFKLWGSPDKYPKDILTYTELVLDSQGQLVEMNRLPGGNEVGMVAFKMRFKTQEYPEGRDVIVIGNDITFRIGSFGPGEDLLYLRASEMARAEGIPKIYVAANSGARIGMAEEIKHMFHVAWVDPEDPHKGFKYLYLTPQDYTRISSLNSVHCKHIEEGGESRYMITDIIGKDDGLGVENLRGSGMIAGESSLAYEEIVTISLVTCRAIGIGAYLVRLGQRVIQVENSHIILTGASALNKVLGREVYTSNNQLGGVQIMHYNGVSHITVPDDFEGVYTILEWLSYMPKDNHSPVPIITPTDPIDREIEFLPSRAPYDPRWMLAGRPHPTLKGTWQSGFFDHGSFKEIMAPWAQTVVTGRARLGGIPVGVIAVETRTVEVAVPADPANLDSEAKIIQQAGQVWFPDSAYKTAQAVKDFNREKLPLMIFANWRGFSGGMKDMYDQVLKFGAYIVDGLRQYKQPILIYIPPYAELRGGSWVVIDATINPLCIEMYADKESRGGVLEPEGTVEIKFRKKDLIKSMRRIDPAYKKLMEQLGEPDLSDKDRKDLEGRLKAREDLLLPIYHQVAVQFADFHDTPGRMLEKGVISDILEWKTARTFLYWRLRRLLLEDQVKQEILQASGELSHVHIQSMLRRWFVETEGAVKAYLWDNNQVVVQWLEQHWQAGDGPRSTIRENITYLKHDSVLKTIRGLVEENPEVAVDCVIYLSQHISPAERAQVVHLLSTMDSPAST
With `CC(=O)N[C@@H](C)CO[C@H]1C[C@H](COc2nc(C)nc3c2ccn3CC2CC2)C1` [Compound I-447], the pIC50 was 7.12.
Regarding `CC(=O)N[C@@H](C)CO[C@H]1C[C@H](COc2ncnc3c2ccn3-c2ccccc2)C1` [Compound I-448], the pIC50 was 6.40.
`CC(=O)N[C@@H](C)CO[C@H]1C[C@H](COc2ncnc3c2ccn3CC2CCCCC2)C1` [Compound I-449]: the pIC50 was 7.29.
In the case of `CC(=O)N[C@@H](C)CO[C@H]1C[C@H](COc2ncnc3c2c(F)cn3CC2CC2)C1` [Compound I-450], the pIC50 is 7.85.
On to `CC(=O)N[C@@H](C)CO[C@H]1C[C@H](COc2ncnc3c2ccn3C2CCCCC2)C1` [Compound I-451], for which the negative logarithm of the IC50 (pIC50) is 7.40.
`CC(=O)N[C@@H](C)CO[C@H]1C[C@H](COc2ncnc(NC(=O)c3ccccc3)c2Cl)C1` [Compound I-452]: the pIC50 was 6.96.
Take `CCn1ccc2c(OC[C@H]3C[C@H](OC[C@H](C)NC(C)=O)C3)ncnc21` [Compound I-453]: the pIC50 was 6.21.
Consider `CC(=O)N[C@@H](C)CO[C@H]1C[C@H](COc2ncnc3c2cc(C)n3CC2CC2)C1` [Compound I-454], for which the pIC50 is 7.06.
In the case of `CC(=O)N[C@@H](C)CO[C@H]1CC[C@H](Oc2ncnc(OCc3ncc(Cl)s3)c2Cl)CC1` [Compound I-455], the pIC50 was 7.30.
For `CC(=O)N[C@@H](C)CO[C@H]1C[C@H](c2nc3cnc(OCc4ccccc4)cc3o2)C1` [Compound I-456], the pIC50 is 6.55.
Regarding `CC(=O)N[C@@H](C)CO[C@]1(C)C[C@@H](COc2ncnc(OCc3ccc(F)cn3)c2Cl)C1` [Compound I-457], the pIC50 is 7.72.
With `CC(=O)N[C@@H](C)CO[C@H]1C[C@H](COc2nccc3c2CCN3CC2CC2)C1` [Compound I-458], the pIC50 is 7.49.
`CC(=O)N[C@@H](C)CO[C@H]1C[C@H](COc2ncnc(OCc3ccc(F)cn3)c2F)C1` [Compound I-459]: the pIC50 is 7.80.
As for `CC(=O)N[C@@H](C)CO[C@H]1C[C@H](COc2ncnc(OCc3cc(Cl)ccn3)c2F)C1` [Compound I-460], the pIC50 was 8.40.
Regarding `CC(=O)N[C@@H](C)CO[C@H]1C[C@H](COc2ncnc(OCc3ccc(F)cc3)c2F)C1` [Compound I-461], the pIC50 is 8.40.
`CC(=O)N[C@@H](C)CO[C@H]1C[C@H](COc2ncnc(-c3nc4ccccc4o3)c2Cl)C1` [Compound I-462]: the pIC50 was 7.05.
On to `CC(=O)N[C@@H](C)CO[C@H]1C[C@H](COc2ncnc(OCC3CCCCO3)c2Cl)C1` (stereo partly shown) [Compound I-463], for which the pIC50 was 7.77.
The result for `CC(=O)N[C@@H](C)CO[C@H]1C[C@H](COc2ncnc(OCc3cncs3)c2Cl)C1` [Compound I-464] reads 7.44; that for `CC(=O)N[C@@H](C)CO[C@H]1C[C@H](COc2nccc3c2cnn3CC2CC2(F)F)C1` (stereo partly shown) [Compound I-465], 6.80; that for `CC(=O)N[C@@H](C)CO[C@H]1C[C@H](COc2ncnc(OC3(c4ccccc4)CC3)c2Cl)C1` [Compound I-466], 6.75.
As to `CC(=O)N[C@@H](C)CO[C@H]1C[C@H](COc2ncnc(OCc3ccc(Cl)cn3)c2F)C1` [Compound I-467], the pIC50 was 8.15.
For `CC(=O)N[C@@H](C)CO[C@H]1C[C@H](COc2ncnc(NC(=O)C3CCCCC3)c2Cl)C1` [Compound I-468], the pIC50 is 6.43.
With `CC(=O)N[C@@H](C)CO[C@H]1C[C@H](Cn2ccc3c(OCc4ccccc4)ncnc32)C1` [Compound I-469], the pIC50 is 6.22.
In the case of `CC(=O)N[C@@H](C)CO[C@H]1C[C@H](Cn2ccc3c(OCc4cc(Cl)ccn4)ncnc32)C1` [Compound I-470], the pIC50 is 6.37.
For `CC(=O)N[C@@H](C)CO[C@H]1C[C@H](COc2ncnc3c2ccn3C(C)C)C1` [Compound I-471], the pIC50 is 6.80.
As to `CC(=O)N[C@@H](C)CO[C@H]1C[C@H](COc2ncnc3c2ccn3Cc2ccccc2F)C1` [Compound I-472], the pIC50 is 7.59.
The result for `CC(=O)N[C@@H](C)CO[C@H]1C[C@H](COc2ncnc3c2ccn3Cc2cccc(F)c2)C1` [Compound I-473] reads 7.55; that for `CC(=O)N[C@@H](C)CO[C@H]1C[C@H](COc2ncnc3c2ccn3Cc2ccc(F)cc2)C1` [Compound I-474], 7.80; that for `CC(=O)N[C@@H](C)CO[C@H]1C[C@H](COc2ccc3nc(OC4CC4)n(C)c3n2)C1` [Compound I-475], 6.27.
For `CC(=O)N[C@@H](C)CO[C@H]1C[C@H](COc2ccc3nc(OCC4CC4)n(C)c3n2)C1` [Compound I-476], the pIC50 is 7.13.
Take `CC(=O)N[C@@H](C)CO[C@H]1C[C@H](COc2ccc3nc(OCC4CC4(F)F)n(C)c3n2)C1` (stereo partly shown) [Compound I-477]: the pIC50 is 6.61.
The result for `CC(=O)N[C@@H](C)CO[C@H]1C[C@H](COc2ccc3nc(OC4CC(F)(F)C4)n(C)c3n2)C1` [Compound I-478] reads 6.94; that for `CCOc1nc2ccc(OC[C@H]3C[C@H](OC[C@H](C)NC(C)=O)C3)nc2n1CC` [Compound I-479], 6.25.
As for `CC(=O)N[C@@H](C)CO[C@H]1C[C@H](COc2ccc3nc(OCc4ccccc4)n(C)c3n2)C1` [Compound I-480], the pIC50 was 7.39.
Take `CC(=O)N[C@@H](C)CO[C@H]1C[C@H](COc2ccc3nc(Oc4ccccc4)n(C)c3n2)C1` [Compound I-481]: the pIC50 was 6.53.
With `CC(=O)N[C@@H](C)CO[C@H]1C[C@H](COc2ccc3nc(OCCC(C)C)n(C)c3n2)C1` [Compound I-482], the pIC50 is 7.06.
As for `CCCOc1nc2ccc(OC[C@H]3C[C@H](OC[C@H](C)NC(C)=O)C3)nc2n1C` [Compound I-483], the pIC50 was 7.09.
On to `CC(=O)N[C@@H](C)CO[C@H]1C[C@H](COc2ccc3nc(OCC(F)F)n(C)c3n2)C1` [Compound I-484], for which the pIC50 is 6.69.
Take `CC(=O)N[C@@H](C)CO[C@H]1C[C@H](COc2ccc3nc(OC[C@H](C)F)n(C)c3n2)C1` [Compound I-485]: the pIC50 is 6.74.
For the compound `CC(=O)N[C@@H](C)CO[C@H]1C[C@H](COc2cc(C)c3nc(OCC4CC4)n(C)c3n2)C1` [Compound I-486], the pIC50 is 6.14.
In the case of `CCOc1nc2ccc(OC[C@H]3C[C@H](OC[C@H](C)NC(C)=O)C3)c(F)c2n1C` [Compound I-487], the pIC50 was 6.44.
For the compound `CCOc1nc2cc(Cl)c(OC[C@H]3C[C@H](OC[C@H](C)NC(C)=O)C3)nc2n1C` [Compound I-488], the pIC50 was 6.50.
For the compound `CC(=O)N[C@@H](C)CO[C@H]1C[C@H](COc2ccc3nc(OCC4CC4)n(C)c3c2)C1` [Compound I-489], the pIC50 was 6.07.
For `CCOc1nc2ccc(OC[C@H]3C[C@H](OC[C@H](C)NC(C)=O)C3)c(Cl)c2n1C` [Compound I-490], the pIC50 was 6.32.
The result for `CCOc1nc2ccc(O[C@H]3CC[C@H](OC[C@H](C)NC(C)=O)CC3)nc2n1C` [Compound I-491] reads 7.29; that for `CCOc1nc2ccc(O[C@H]3CC[C@H](OC[C@H](C)NC(C)=O)CC3)nc2n1CC` [Compound I-493], 7.15.
The figure for `CC(=O)N[C@@H](C)CO[C@H]1CC[C@H](Oc2ccc3nc(OC(C)C)n(C)c3n2)CC1` [Compound I-494] is 7.34; for `CC(=O)N[C@@H](C)CO[C@H]1CC[C@H](Oc2ccc3nc(OC4CC4)n(C)c3n2)CC1` [Compound I-495] it is 7.13.
The figure for `CC(=O)N[C@@H](C)CO[C@H]1CC[C@H](Oc2ccc3nc(OCC4CC4)n(C)c3n2)CC1` [Compound I-496] is 7.62.
On to `CC(=O)N[C@@H](C)CO[C@H]1CC[C@H](Oc2ccc3nc(OC4CC(F)(F)C4)n(C)c3n2)CC1` [Compound I-497], for which the pIC50 is 7.82.
Take `CC(=O)N[C@@H](C)CO[C@H]1CC[C@H](Oc2ccc3nc(OCC(F)(F)F)n(C)c3n2)CC1` [Compound I-498]: the pIC50 is 7.89.
The result for `CC(=O)N[C@@H](C)CO[C@H]1CC[C@H](Oc2ccc3nc(OCC(F)F)n(C)c3n2)CC1` [Compound I-499] reads 7.40.
The result for `CC(=O)N[C@@H](C)CO[C@H]1CC[C@H](Oc2ccc3nc(OCC(C)(F)F)n(C)c3n2)CC1` [Compound I-500] reads 7.68.
`CC(=O)N[C@@H](C)CO[C@H]1CC[C@H](Oc2ccc3nc(OCc4ccccc4)n(C)c3n2)CC1` [Compound I-501]: the pIC50 was 8.05.
The result for `CC(=O)N[C@@H](C)CO[C@H]1CC[C@H](Oc2ccc3nc(OC4(C)CC4)n(C)c3n2)CC1` [Compound I-502] reads 7.21.
As for `CC(=O)N[C@@H](C)CO[C@H]1CC[C@H](Oc2ccc3nc(OCC4CC4(F)F)n(C)c3n2)CC1` (stereo partly shown) [Compound I-503], the pIC50 is 7.62.
The result for `CC(=O)N[C@@H](C)CO[C@H]1CC[C@H](Oc2ccc3nc(OCCC(F)(F)F)n(C)c3n2)CC1` [Compound I-504] reads 7.74; that for `CCCOc1nc2ccc(O[C@H]3CC[C@H](OC[C@H](C)NC(C)=O)CC3)nc2n1C` [Compound I-505], 7.92.
For the compound `CCOc1nc2ccc(O[C@H]3CC[C@H](OC[C@H](C)NC(C)=O)CC3)cc2n1C` [Compound I-506], the pIC50 was 6.60.
The figure for `CCOc1nc2ccc(O[C@H]3CC[C@H](OC[C@H](C)NC(C)=O)CC3)c(F)c2n1C` [Compound I-507] is 6.88; for `CC(=O)N[C@@H](C)CO[C@H]1CC[C@H](Oc2cc(C)c3nc(Oc4ccc(F)cc4)n(C)c3n2)CC1` [Compound I-508] it is 7.09.
In the case of `CC(=O)N[C@@H](C)CO[C@H]1CC[C@H](Oc2cc(C)c3nc(OCC4CC4)n(C)c3n2)CC1` [Compound I-509], the pIC50 was 6.65.
On to `CCOc1nc2cc(Cl)c(O[C@H]3CC[C@H](OC[C@H](C)NC(C)=O)CC3)nc2n1C` [Compound I-510], for which the pIC50 was 7.55.
With `CC(=O)N[C@@H](C)CO[C@H]1CC[C@H](Oc2ccc3nc(OC4CCC(F)(F)CC4)n(C)c3n2)CC1` [Compound I-511], the pIC50 was 7.66.

Broadly, the pIC50 is the IC50 on a negative log10 scale, so that one unit is a factor of ten.
